From patent publication US7632863B2, “3,4,5,4′-tetramethoxyl-α,β-diphenylethane-3′-O-sodium sulphate and its use” (The Jian Cell Biomedical Research Co., Ltd., priority 2007, dated 2009)
“Also recorded” adds a separate entry of the source. Read-outs that look alike come from different tables or passages of the source.

Experiments:
KunMing (KM) mice = assay: LD50 determination, tail vein injection; type: in vivo
Protocol: 1. Experimental animal: KunMing (KM) mice, provided by Shanghai Slac Laboratory Animal Co., Ltd., half and half of female and male, 6 groups, ten in each group, marked by bitter acid.
2. […] Preparing medical solution of equal ratio: dissolving with 0.9% NaCl to prepare the medical solution with the concentration of 336 mg/7 ml, 316.96 mg/7 ml, 299.32 mg/7 ml, 282.52 mg/7 ml, 266.84 mg/7 ml, 252 mg/7 ml.
3. Dosage for administration: with 0.5 ml/20 g bottom up.
4. Means of administration: tail vein injection
5. Experimental method: observing at 0.25 h, 0.5 h, 1 h, 2 h, 4 h, 24 h respectively after administration; then observing once every day 14 days; putting the mice still alive to death on the 15th day and recording the death rate.

S180 sarcoma [1] = conditions: for 0 d weight / 11 d weight without tumor / Tumor inhibiting rate % / Tumor weight: i.v., S180 sarcoma-bearing mice
Text: (§1) (1) Sample: 3,4,5,4′-tetramethoxyl-α,β-diphenylethane-3′-O-sodium sulphate (AS) provided by Zhejiang Cell Biomedical Research Co., Ltd., and prepared by the process in Example One. Dissolved by physiological saline for the concentration needed.
(2) Control product: Cyclophosphamide for injection (CTX), Jiangsu Hengrui Pharmaceutical Inc. Co. Batch No.: 04123021 Dissolved by physiological saline for preparation.
(§2) (1) KM mouse bearing S180 sarcoma.
(2) 50 KM mice, female, weighting 18-22 g, provided by Zhejing College of Traditional Chinese Medicine.
(1) Drawing ascites under aseptic condition from mouse bearing S180 sarcoma, diluting with physiologic saline 1:3, giving subcutaneous inoculation in the armpit of the right forelimb of the KM mice with 0.2 ml each; dividing the mice into 5 groups randomly the next day, 10 in each group.
(§3) (2) Administering drug to the mice by weight the third day of inoculation, intravenous administration 0.5 ml/20 g […], by weight, and putting them to death on the 11th day after inoculation, weighing the tumor and calculating the rate of tumor inhibition.
(§4) (3) dosage (mg/kg/d) and means of administration:
(§5) AS: 50 mg/kg, tail vein injection
(§6) AS: 100 mg/kg, tail vein injection
(§7) AS: 200 mg/kg, tail vein injection
(§8) CTX: 30 mg/kg, tail vein injection
(§9) Setting up another blank control group, tail vein injection of 0.9% NaCl 0.5 ml.
(§10) (4) Judging the result with the following formula: […]

S180 sarcoma [2] = conditions: for 0 d weight / 11 d weight without tumor / Tumor inhibiting rate % / Tumor weight: i.v., S180 sarcoma-bearing mice; remark: listed apart in the source
Text: as §1
(2) Cisplatin: Cisplatin for injection (DDP), Qilu Pharmaceutical Co., Ltd. Batch No.: 5120282DC. Dissolved by physiological saline for preparation.
(3) Control product: Cyclophosphamide for injection (CTX), Jiangsu Hengrui Pharmaceutical Inc. Co. Batch No.: 04123021 Dissolved by physiological saline for preparation.
as §2
(2) 70 KM mice, female, weighting 18-22 g, provided by Zhejing College of Traditional Chinese Medicine.
(1) Drawing ascites under aseptic condition from mouse bearing S180 sarcoma, diluting with physiologic saline 1:3, giving subcutaneous inoculation in the armpit of the right forelimb of the KM mice with 0.2 ml each; dividing the mice into 7 groups randomly the next day, 10 in each group.
as §3, §4, §5, §6, §7
DDP: 1 mg/kg, tail vein injection
AS+DDP: 50 mg/kg+1 mg/kg, tail vein injection
as §8, §9, §10

Lewis lung cancer = assay: Joint administration of AS and DDP, murine model of Lewis lung cancer (Example Five); type: in vivo, C57BL/6J mice; conditions: for Tumor inhibiting rate % / Tumor weight: i.v., mice bearing Lewis lung cancer
Text: (1) Sample: 3,4,5,4′-tetramethoxyl-α,β-diphenylethane-3′-O-sodium sulphate (AS), raw material medicine, provided by Zhejiang Cell Biomedical Research Co., Ltd., and prepared by the process in Example One. Batch No.: 061025. Dissolved by physiological saline for the concentration needed.
(2) Cisplatin: Cisplatin for injection (DDP), Qilu Pharmaceutical Co., Ltd. Batch No.: 5120282DC; Dissolved by physiological saline for preparation
(3) Control product: Cyclophosphamide for injection (CTX), Jiangsu Hengrui Pharmaceutical Inc. Co. Batch No.: 04123021. Dissolved by physiological saline for preparation.
(1) C57BL/6J mouse bearing Lewis lung cancer
(2) 70 C57BL/6J mice, female, weighing 17-21 g. Provided by the animal house of Zhejiang Cell Biomedical Research Co., Ltd.
(1) Taking tumor from C57BL/6J mouse under aseptic condition, grinding and diluting it by physiological saline 1:3 (weight:volume), and giving hypodermic inoculation 0.2 ml per mouse in the armpit of the right forelimb of each mouse. dividing the mice into 7 groups randomly the next day, 10 in each group.
(2) After inoculation, waiting till the tumor has grown to the accessible size, administering medicine according to body weight, 0.5 ml/20 g intravenous, for 11 days, putting the mice to death on the 19th after inoculation, taking out and weighing the tumor, and calculating the tumor inhibiting rate.
as §10

Water solubility = type: physicochemical
[3] = 1132 mg/kg, tail vein injection
[4] = 1200 mg/kg, tail vein injection

## COc1ccc(CCc2cc(OC)c(OC)c(OC)c2)cc1OS(=O)(=O)[O-].[Na+] [AS, 3,4,5,4′-tetramethoxyl-α,β-diphenylethane-3′-O-sodium sulphate]
KunMing (KM) mice; [3]
  Deaths days 1 ♂: 0
  Deaths days 2 ♀: 0
  Deaths days 2 ♂: 0
  Deaths days 3 ♀: 0
  Deaths days 3 ♂: 0
  Deaths days 4 ♀: 0
  Deaths days 4 ♂: 0
  Deaths hours 0-4 ♀: 3
  Deaths hours 0-4 ♂: 3
KunMing (KM) mice; [4]
  Death rate in total % Total: 70%
  Death rate in total % ♀: 40%
  Death rate in total % ♂: 100%
  Deaths days 1 ♀: 0
  Deaths days 1 ♂: 0
  Deaths days 2 ♀: 0
  Deaths days 2 ♂: 0
  Deaths days 3 ♀: 0
  Deaths days 3 ♂: 0
  Deaths days 4 ♀: 0
  Deaths days 4 ♂: 0
  Deaths hours 0-4 ♀: 2
  Deaths hours 0-4 ♂: 5
KunMing (KM) mice; conclusion from LD50
  toxicity (in words): very low
S180 sarcoma [1]; Dosage 50 mg/kg
  0 d weight: 21.06 ± 0.82 g
  11 d weight without tumor: 25.89 ± 3.32 g
  Tumor inhibiting rate %: 44%
  Tumor weight: 1.63 ± 1.43 g
S180 sarcoma [1]; Dosage 100 mg/kg
  0 d weight: 20.46 ± 1.03 g
  11 d weight without tumor: 28.42 ± 4.13 g
  Tumor inhibiting rate %: 29%
  Tumor weight: 2.07 ± 1.03 g
S180 sarcoma [1]; Dosage 200 mg/kg
  0 d weight: 20.45 ± 0.86 g
  11 d weight without tumor: 27.10 ± 2.44 g
  Tumor inhibiting rate %: 54%
  Tumor weight: 1.34 ± 0.53 g
S180 sarcoma [1]; result analysis
  inhibitory effect on S180 tumors (in words): excellent inhibitory effect
S180 sarcoma [2]; Dosage 50 mg/kg
  0 d weight: 21.06 ± 0.82 g
  11 d weight without tumor: 25.89 ± 3.32 g
  Tumor inhibiting rate %: 44%
  Tumor weight: 1.63 ± 1.43 g
S180 sarcoma [2]; Dosage 100 mg/kg
  0 d weight: 20.46 ± 1.03 g
  11 d weight without tumor: 28.42 ± 4.13 g
  Tumor inhibiting rate %: 29%
  Tumor weight: 2.07 ± 1.03 g
S180 sarcoma [2]; Dosage 200 mg/kg
  0 d weight: 20.45 ± 0.86 g
  11 d weight without tumor: 27.10 ± 2.44 g
  Tumor inhibiting rate %: 54%
  Tumor weight: 1.34 ± 0.53 g
S180 sarcoma [2]; joint administration with DDP
  effect in inhibiting S180 tumors (in words): fine coordinating effect; also recorded: excellent coordinating effect
Lewis lung cancer; Dosage 50 mg/kg
  Tumor inhibiting rate %: 35.5%
  Tumor weight: 3.03 ± 0.55 g
Lewis lung cancer; Dosage 100 mg/kg
  Tumor inhibiting rate %: 36.4%
  Tumor weight: 2.99 ± 0.50 g
Lewis lung cancer; Dosage 200 mg/kg
  Tumor inhibiting rate %: 52.1%
  Tumor weight: 2.25 ± 0.75 g
Lewis lung cancer; alone
  inhibiting the tumor in murine model of Lewis lung cancer (in words): quite effective
Lewis lung cancer; joint administration with DDP
  inhibiting the tumors in murine model of Lewis lung cancer (in words): certain coordinated effect
Water solubility
  water solubility (in words): good water solubility
